Results: ChEMBL document CHEMBL5726081, “Therapeutic inhibitory compounds” (2017)

Biological target: Plasma kallikrein (Homo sapiens, UniProt P03952)
Experiment: In Vitro Enzyme Inhibition Assay: The ability of the compounds disclosed herein to inhibit human plasma kallikrein activity was quantified according to the procedures below.A 10 mM solution of the test compound was made in DMSO. […] A control tube containing only DMSO is included. […] 50 μL was removed from this mixture and placed into duplicate wells on a Microfluor 1Black U-bottom microtiter plate (Thermo Scientific). This plate was incubated for 5 minutes at 37° C. To each well, 50 μL of pre-warmed 2×PFR-AMC was added to start the enzymatic reaction. Cleavage of PFR-AMC was monitored in a Biotek Synergy H4 reader set at 37° C. Readings are taken every 43 seconds for 1 hour.

Chain of Plasma kallikrein (P03952 20-390 limits assumed): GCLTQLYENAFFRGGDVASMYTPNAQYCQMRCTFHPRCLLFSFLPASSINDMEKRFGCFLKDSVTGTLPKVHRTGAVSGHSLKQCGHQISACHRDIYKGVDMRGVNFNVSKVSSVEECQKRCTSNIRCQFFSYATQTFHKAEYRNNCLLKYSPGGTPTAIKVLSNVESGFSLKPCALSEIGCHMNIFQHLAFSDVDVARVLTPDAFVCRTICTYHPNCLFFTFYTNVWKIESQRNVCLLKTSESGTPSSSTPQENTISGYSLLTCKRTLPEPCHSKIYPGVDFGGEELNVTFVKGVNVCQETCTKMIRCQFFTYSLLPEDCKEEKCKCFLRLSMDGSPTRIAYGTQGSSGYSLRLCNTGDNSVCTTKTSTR
Chain of Plasma kallikrein (P03952 391-638 limits assumed): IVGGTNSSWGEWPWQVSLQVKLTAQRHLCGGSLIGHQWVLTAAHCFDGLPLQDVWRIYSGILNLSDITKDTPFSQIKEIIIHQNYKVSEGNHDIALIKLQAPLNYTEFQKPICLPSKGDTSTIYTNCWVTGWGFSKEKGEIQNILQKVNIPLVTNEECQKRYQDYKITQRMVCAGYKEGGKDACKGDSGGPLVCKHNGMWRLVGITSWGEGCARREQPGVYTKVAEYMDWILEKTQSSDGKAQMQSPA

SMILES | IC50
Cc1nc(N)ccc1CNC(=O)c1ccnc(Cc2cc(C#N)c3ncc(Cl)cc3c2)c1 | < 100 nM
N#Cc1ccc2cc(Cc3cc(C(=O)NCc4cc5c(Cl)c[nH]c5cc4F)ccn3)ccc2n1 | < 100 nM
